From patent US20130303509A1, “NAMPT INHIBITORS” (AbbVie Inc., priority 2012, published 2013)

System: PC3 cells
Assay: NAMPT Cell Proliferation Assay
Type: cell-based
Conditions: Homo sapiens, PC-3, 120 h, 5 days incubation, cell viability by Cell Titer Glo
Experimental: NAMPT Cell Proliferation Assay
PC3 cells were seeded in 96-well black plates (Corning #3904) at 500 cells)Owell in 90 µl of RPMI media containing 10% heat-inactivated FBS and incubated overnight at 37° C. and 5% CO2 to allow cells to attach to wells. The following day, test compounds were serially diluted in neat DMSO to 1000× final concentrations prior to dilution with RPMI media to 10× and 1% DMSO. […] of the 10× compounds were then transferred to wells containing cells to produce a dose response of 10-fold dilutions from […] to 1×10^−[…]. Cells were incubated for 5 days at 37° C. and 5% CO2, then cell viability was measured using Cell Titer Glo reagent (Promega #G7571). Percent inhibition values were calculated and fitted to a sigmoidal dose response curves using Assay Explorer software to determine IC50s.

Structure (SMILES) | IC50 [nM]
O=C(Nc1ccc(OC2CCN(C(=O)Cc3cc(F)cc(F)c3)CC2)cc1)C1CN(c2ccnnc2)C1 [Example 291, N-[4-({1-[(3,5-difluorophenyl)acetyl]piperidin-4-yl}oxy)phenyl]-1-(pyridazin-4-yl)azetidine-3-carboxamide] | 73.6
O=C(Nc1ccc(OC2CCN(C(=O)c3ccc(F)c(F)c3)CC2)cc1)C1CN(c2cccnn2)C1 [Example 234, N-(4-{[1-(3,4-difluorobenzoyl)piperidin-4-yl]oxy}phenyl)-1-(pyridazin-3-yl)azetidine-3-carboxamide] | 10.5
CC(C)C(=O)N1CCC(c2ccc(NC(=O)C3CN(c4ccnnc4)C3)cc2)CC1 [Example 528, N-{4-[1-(2-methylpropanoyl)piperidin-4-yl]phenyl}-1-(pyridazin-4-yl)azetidine-3-carboxamide] | 19.2
Cc1ncccc1N1CC(C(=O)Nc2ccc(C3CCN(C(=O)CN4CCOCC4)CC3)cc2)C1 [Example 164, 1-(2-methylpyridin-3-yl)-N-{4-[1-(morpholin-4-ylacetyl)piperidin-4-yl]phenyl}azetidine-3-carboxamide] | 202
Cc1ncccc1N1CC(C(=O)Nc2ccc(C3CCN(C(=O)C4CC4C)CC3)cc2)C1 (stereo not shown) [Example 163, N-(4-{1-[(2-methylcyclopropyl)carbonyl]piperidin-4-yl}phenyl)-1-(2-methylpyridin-3-yl)azetidine-3-carboxamide] | 120
O=C(NC1CN(c2cccnc2)C1)c1ccc(OC2CCN(C(=O)CC3CCOCC3)CC2)cc1 [Example 21, N-[1-(pyridin-3-yl)azetidin-3-yl]-4-{[1-(tetrahydro-2H-pyran-4-ylacetyl)piperidin-4-yl]oxy}benzamide] | 150
CC(=O)N1CCC(c2ccc(NC(=O)C3CN(c4cccnc4C)C3)cc2)CC1 [Example 178, N-[4-(1-acetylpiperidin-4-yl)phenyl]-1-(2-methylpyridin-3-yl)azetidine-3-carboxamide] | 300
CCC(CC)CN1CCC(Oc2ccc(NC(=O)C3CN(c4cccnc4)C3)cc2)CC1 [Example 78, N-(4-{[1-(2-ethylbutyl)piperidin-4-yl]oxy}phenyl)-1-(pyridin-3-yl)azetidine-3-carboxamide] | 21.2
O=C(Nc1ccc(OC2CCN(C(=O)Cc3ccc(C(F)(F)F)cc3)CC2)cc1)C1CN(c2cccnn2)C1 [Example 220, 1-(pyridazin-3-yl)-N-{4-[(1-{[4-(trifluoromethyl)phenyl]acetyl}piperidin-4-yl)oxy]phenyl}azetidine-3-carboxamide] | 13.2
CC(C)Cn1cc(-c2ccc(C(=O)N[C@@H]3CCN(c4ccnnc4)C3)s2)cn1 [Example 604, 5-[1-(2-methylpropyl)-1H-pyrazol-4-yl]-N-[(3R)-1-(pyridazin-4-yl)pyrrolidin-3-yl]thiophene-2-carboxamide] | 8260
CC(C)(C)OC(=O)N1CCC(Oc2ccc(C(=O)N[C@H]3CCN(c4cccnc4)C3)cc2)CC1 [Example 27, tert-butyl 4-(4-{[(3S)-1-(pyridin-3-yl)pyrrolidin-3-yl]carbamoyl}phenoxy)piperidine-1-carboxylate] | > 10000
Cc1ncccc1N1CC(C(=O)Nc2ccc(C3CCN(C(=O)CC4CCCCC4)CC3)cc2)C1 [Example 179, N-{4-[1-(cyclohexylacetyl)piperidin-4-yl]phenyl}-1-(2-methylpyridin-3-yl)azetidine-3-carboxamide] | 192
O=C(Nc1ccc(C2CCN(C(=O)Cc3ccc(OC(F)(F)F)cc3)CC2)cc1)C1CN(c2ccnnc2)C1 [Example 561, 1-(pyridazin-4-yl)-N-[4-(1-{[4-(trifluoromethoxy)phenyl]acetyl}piperidin-4-yl)phenyl]azetidine-3-carboxamide] | 62.2
O=C(Nc1ccc(O[C@@H]2CCN(C(=O)Cc3ccc(F)cc3F)C2)cc1)C1CN(c2ccnnc2)C1 [Example 454, N-[4-({(3R)-1-[(2,4-difluorophenyl)acetyl]pyrrolidin-3-yl}oxy)phenyl]-1-(pyridazin-4-yl)azetidine-3-carboxamide] | 106
CC(C)CN1CCC(Oc2ccc(NC(=O)C3CN(c4cccnc4)C3)cc2)CC1 [Example 76, N-(4-{[1-(2-methylpropyl)piperidin-4-yl]oxy}phenyl)-1-(pyridin-3-yl)azetidine-3-carboxamide] | 19.1
CCC(CC)CN1CCC(c2ccc(NC(=O)C3CN(c4cccnc4)C3)cc2)CC1 [Example 92, N-{4-[1-(2-ethylbutyl)piperidin-4-yl]phenyl}-1-(pyridin-3-yl)azetidine-3-carboxamide] | 24

The remaining compounds from weak to strong by IC50, led by results:

IC50 [nM] | Structure (SMILES)
10.3 | O=C(Nc1ccc(OC2CCN(C(=O)c3ccc(C(F)(F)F)cc3)CC2)cc1)C1CN(c2cccnn2)C1 [Example 237, 1-(pyridazin-3-yl)-N-[4-({1-[4-(trifluoromethyl)benzoyl]piperidin-4-yl}oxy)phenyl]azetidine-3-carboxamide]
9.09 | O=C(Nc1ccc(OC2CCN(C(=O)C3CCOCC3)CC2)cc1)C1CN(c2cccnn2)C1 [Example 214, 1-(pyridazin-3-yl)-N-(4-{[1-(tetrahydro-2H-pyran-4-ylcarbonyl)piperidin-4-yl]oxy}phenyl)azetidine-3-carboxamide]
8.54 | O=C(Nc1ccc(C2CCN(C(=O)c3ccc(Cl)cc3)CC2)cc1)C1CN(c2cccnn2)C1 [Example 401, N-{4-[1-(4-chlorobenzoyl)piperidin-4-yl]phenyl}-1-(pyridazin-3-yl)azetidine-3-carboxamide]
8.19 | Cc1ccc(OCC(=O)N2CCC(c3ccc(NC(=O)C4CN(c5cccnn5)C4)cc3)CC2)cc1 [Example 398, N-(4-{1-[(4-methylphenoxy)acetyl]piperidin-4-yl}phenyl)-1-(pyridazin-3-yl)azetidine-3-carboxamide]
7.52 | O=C(Nc1ccc(OC2CCN(C(=O)c3cccc(OC(F)(F)F)c3)CC2)cc1)C1CN(c2cccnn2)C1 [Example 224, 1-(pyridazin-3-yl)-N-[4-({1-[3-(trifluoromethoxy)benzoyl]piperidin-4-yl}oxy)phenyl]azetidine-3-carboxamide]
7.28 | O=C(Nc1ccc(C2CCN(C(=O)c3ccc(F)cc3)CC2)cc1)C1CN(c2cccnn2)C1 [Example 349, N-{4-[1-(4-fluorobenzoyl)piperidin-4-yl]phenyl}-1-(pyridazin-3-yl)azetidine-3-carboxamide]
6.11 | O=C(Nc1ccc(C2CCN(C(=O)c3ccoc3)CC2)cc1)[C@H]1CCN(c2cccnn2)C1 [Example 687, (3S)-N-{4-[1-(furan-3-ylcarbonyl)piperidin-4-yl]phenyl}-1-(pyridazin-3-yl)pyrrolidine-3-carboxamide]
5.96 | Cc1ccc(F)cc1C(=O)N1CCC(c2ccc(NC(=O)[C@H]3CCN(c4cccnn4)C3)cc2)CC1 [Example 697, (3S)-N-{4-[1-(5-fluoro-2-methylbenzoyl)piperidin-4-yl]phenyl}-1-(pyridazin-3-yl)pyrrolidine-3-carboxamide]
5.65 | O=C(Nc1ccc(O[C@@H]2CCN(C(=O)c3nccs3)C2)cc1)C1CN(c2ccnnc2)C1 [Example 443, 1-(pyridazin-4-yl)-N-(4-{[(3R)-1-(1,3-thiazol-2-ylcarbonyl)pyrrolidin-3-yl]oxy}phenyl)azetidine-3-carboxamide]
5.47 | CCOCC(=O)N1CCC(Oc2ccc(NC(=O)C3CN(c4cccnc4)C3)cc2)CC1 [Example 44, N-(4-{[1-(ethoxyacetyl)piperidin-4-yl]oxy}phenyl)-1-(pyridin-3-yl)azetidine-3-carboxamide]
4.06 | COCCn1nc(C(C)(C)C)cc1-c1ccc(NC(=O)C2CN(c3cccnn3)C2)cc1 [Example 865, N-{4-[3-tert-butyl-1-(2-methoxyethyl)-1H-pyrazol-5-yl]phenyl}-1-(pyridazin-3-yl)azetidine-3-carboxamide]
3.51 | CC(C)(C)CC(=O)N1CCC(c2ccc(NC(=O)[C@H]3CCN(c4cccnn4)C3)cc2)CC1 [Example 723, (3S)-N-{4-[1-(3,3-dimethylbutanoyl)piperidin-4-yl]phenyl}-1-(pyridazin-3-yl)pyrrolidine-3-carboxamide]
1.84 | O=C(Nc1ccc(C2CCN(C(=O)[C@@H]3CCCO3)CC2)cc1)C1CN(c2cccnc2)C1 [Example 10, 1-(pyridin-3-yl)-N-(4-{1-[(2S)-tetrahydrofuran-2-ylcarbonyl]piperidin-4-yl}phenyl)azetidine-3-carboxamide]
1.83 | O=C(Nc1ccc(C2CCN(C(=O)C3CCCCC3)CC2)cc1)C1CN(c2cccnn2)C1 [Example 339, N-{4-[1-(cyclohexylcarbonyl)piperidin-4-yl]phenyl}-1-(pyridazin-3-yl)azetidine-3-carboxamide]
1.23 | CC(C)(C)CC(=O)N1CCC(c2ccc(NC(=O)C3CN(c4cccnn4)C3)cc2)CC1 [Example 327, N-{4-[1-(3,3-dimethylbutanoyl)piperidin-4-yl]phenyl}-1-(pyridazin-3-yl)azetidine-3-carboxamide]
0.62 | CCC(=O)N1CCC(c2ccc(NC(=O)C3CN(c4cccnc4)C3)cc2)CC1 [Example 121, N-[4-(1-propanoylpiperidin-4-yl)phenyl]-1-(pyridin-3-yl)azetidine-3-carboxamide]
0.24 | CC(C)(C)C(=O)N1CCC(c2ccc(NC(=O)C3CN(c4cccnc4)C3)cc2)CC1 [Example 125, N-{4-[1-(2,2-dimethylpropanoyl)piperidin-4-yl]phenyl}-1-(pyridin-3-yl)azetidine-3-carboxamide]
0.19 | O=C(Nc1ccc(C2CCN(C(=O)CC3CCCCC3)CC2)cc1)C1CN(c2cccnc2)C1 [Example 119, N-{4-[1-(cyclohexylacetyl)piperidin-4-yl]phenyl}-1-(pyridin-3-yl)azetidine-3-carboxamide]
